The values below come from patent US20250127906A1, “SMALL-MOLECULE DEGRADERS OF CDK8 AND CDK19” (University of South Carolina, priority 2021, published 2025).

One assay relates to RPMI 8226 cells. As to the kind of experiment: Concentration dependence of RPMI 8226 growth inhibition. The note with it: RPMI 8226, 4-day growth inhibition. The assay is classed as cell-based.
Assay [1] relates to Jurkat cells. As to the kind of experiment: Long-term growth of Jurkat cells under continuous treatment. Conditions: 300 nM continuous. The class given is cell-based, human. The procedure:
(§1) The anti-proliferative effects of a PROTAC and a kinase inhibitor were compared in leukemia cell lines. In the long-term treatment experiment shown in FIG. 11A, Jurkat cells (0.1 million cells) were continuously treated with vehicle control (0.1% DMSO), 300 nM BI-1347 or 300 nM IA7886 for 53 days (each condition in biological triplicates). Every 7-8 days, live cells were counted using BioRAD TC20 Automated Cell Counter with trypan blue staining: 0.1 million live cells were passaged to a new T25 flask to propagate under the same treatment conditions. The survival fraction was calculated by dividing the accumulated number of drug-treated cells with the accumulated number of vehicle-treated cells. […] This sustained inhibition property of PROTAC was also observed in MV4-11, a leukemia cell line highly sensitive to CDK8/19 kinase inhibitors.

Another assay deals with KMS-12-BM cells. The experiment in a line: Concentration dependence of KMS-12-BM growth inhibition (CCK-8 assay). The assay is classed as cell-based. The note with it: Homo sapiens, 96 h, over 4 days. The procedure: Concentration dependence of KMS-12-BM growth inhibition over 4 days was determined for BI-1347 CDK8/19 kinase inhibitor and IA7886 PROTAC using CCK-8 assay (FIG. 13B).

Assay [2] relates to Jurkat cells. As to the kind of experiment: Wash-off growth study in Jurkat cells. The note with it: pre-treated 200 nM for 8 days, then drug-free vs drug-containing media for 8 days. The class given is cell-based, human. The procedure: We also compared the stability of short-term growth inhibition induced by a PROTAC and a kinase inhibitor in a wash-off study in Jurkat cells. In the experiment shown in FIG. 11C, Jurkat cells were pre-treated with 200 nM BI-1347 or IA7886 for 8 days before removal of drug-containing media and further cultured in either drug-containing (200 nM) or drug-free media for 8 days before counting cell numbers. Removal of BI-1347 led to 7.1 fold increase of the cell number while removal of IA7886 increased the cell number only 1.8 fold (FIG. 11C).

The next assay deals with SK-MM-2 cells. The experiment in a line: SK-MM-2 multiple myeloma cell growth over 20 days continuous treatment. The class given is cell-based. Conditions: BI1347 200 nM, Senexin C 1 μM, IA7886 200 nM, IA7843 1 μM. As for the experimental part: The following CDK8/19 kinase inhibitors were tested for their effects on MM cell lines over 20 days continuous treatment: CDK8/19 kinase inhibitors BI1347 (200 nM) and Senexin C (1 μM), BI1347-derived PROTAC IA7886 (200 nM) and Senexin C-derived PROTAC IA7843 (1 μM). 1-4 million cells were treated with vehicle control (0.1% DMSO), or CDK8/19 kinase inhibitors or PROTACs for 20 days. Every 4 days, cells were counted using BioRAD TC20 Automated Cell Counter with trypan blue staining, and the same number of cells were passaged to a new T25 flask to propagate under the same treatment conditions.

The subject of another assay is MV4-11 cells. As to the kind of experiment: Long-term growth of MV4-11 cells under continuous treatment. Conditions: MV4-11, 300 nM continuous. The class given is cell-based, human. As for the experimental part: as §1
For a further assay, the system named is CDK8/19-regulated genes. As to the kind of experiment: QPCR of CDK8/19-regulated genes in HEK-293 wild-type and CDK8/19 double-knockout cells. The class given is cell-based, human. The note with it: for effect on expression of CDK8/19-regulated genes: 200 nM, 3-day treatment. As for the experimental part: CDK8/19 act as transcriptional regulators, and therefore we tested the effects of 3-day treatment with 200 nM PROTAC IA7886 along with 200 nM CDK8/19 kinase inhibitor BI-1347 on a series of CDK8/19-regulated genes, using QPCR.
We have also compared the stability of transcriptional changes induced by a PROTAC and by a kinase inhibitor. In the experiment shown in FIG. 10A, HEK-293 cells were treated with 200 nM of BI-1347 or IA7886 for 3 days, and then the inhibitors were washed off and the restoration of transcriptional changes was monitored 24 hrs and 48 hrs after wash-off.

The next assay deals with CDK19 (Homo sapiens, UniProt Q9BWU1). As to the kind of experiment: CDK19 degradation in HEK-293 cells (Western blot). The class given is cell-based. On the set-up: PROTACs on CDK8 and CDK19 degradation in HEK-293cells; endogenous in cells; host or cells: HEK-293. Conditions: concentration degrading CDK19 to half of level in untreated cells. The text has this: Furthermore, the degradation of both CDK8 and CDK19 by the PROTACs is also seen to decrease the levels of their binding partner cyclin C (CCNC) (FIG. 2B, D, E), which is known to be protected from proteolytic degradation by its interaction with CDK8 (Barette et al., 2001).
Chain of CDK19 (Q9BWU1 whole entry): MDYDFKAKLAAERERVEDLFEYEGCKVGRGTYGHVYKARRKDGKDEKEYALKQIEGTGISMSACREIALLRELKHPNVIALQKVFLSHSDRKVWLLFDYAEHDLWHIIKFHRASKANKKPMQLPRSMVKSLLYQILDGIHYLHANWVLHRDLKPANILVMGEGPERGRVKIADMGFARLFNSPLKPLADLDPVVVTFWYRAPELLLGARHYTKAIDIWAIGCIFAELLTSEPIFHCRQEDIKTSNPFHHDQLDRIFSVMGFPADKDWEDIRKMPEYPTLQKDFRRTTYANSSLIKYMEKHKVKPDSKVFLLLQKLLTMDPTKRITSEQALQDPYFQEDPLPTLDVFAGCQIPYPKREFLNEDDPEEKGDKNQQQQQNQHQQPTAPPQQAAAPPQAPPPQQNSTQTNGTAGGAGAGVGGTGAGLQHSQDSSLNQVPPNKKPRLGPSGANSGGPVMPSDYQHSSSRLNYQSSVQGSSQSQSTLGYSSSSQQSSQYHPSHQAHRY
Chain of CDK19 (P24863 whole entry partner): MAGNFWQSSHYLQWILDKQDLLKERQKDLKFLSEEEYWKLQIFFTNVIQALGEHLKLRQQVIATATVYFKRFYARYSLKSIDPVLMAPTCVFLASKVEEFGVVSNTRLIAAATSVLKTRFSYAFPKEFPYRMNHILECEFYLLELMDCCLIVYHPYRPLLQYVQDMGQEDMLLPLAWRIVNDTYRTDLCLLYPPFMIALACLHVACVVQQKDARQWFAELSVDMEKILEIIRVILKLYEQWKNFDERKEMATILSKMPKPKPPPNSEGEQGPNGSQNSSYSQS
(§2) FIGS. 2F and 2G show the effects of different concentrations of potent Senexin C- and BI-1347-based PROTACs on CDK8 and CDK19 degradation in HEK-293cells. Based on these assays, we calculated DC50 values that correspond to PROTAC concentrations inducing degradation of CDK8 and CDK19 to the half of protein level in untreated cells. The corresponding CDK8 DC50 values were 46 nM for IA7843, 6.6 nM for IA7882 and 2.8 nM for IA7886, and CDK19 DC50 values were 1 μM for IA7843, 25 nM for IA7882 and 10 nM for IA7886.

A further assay has as its target CDK8 (Homo sapiens, UniProt P49336). The experiment in a line: CDK8 degradation in HEK-293 cells (Western blot, normalized by GAPDH). The assay is classed as cell-based. Details: endogenous in cells; host or cells: HEK-293. Conditions: HEK-293 cells. As for the experimental part: Table 1 presents the structures of 35 different chimeras that have been synthesized, together with their effects (at 1 μM or 0.3 μM concentrations) on CDK8 degradation in HEK-293 cells. The synthesis schemes of all the compounds are described below. CDK8 degradation was measured by Western blot analysis of RIPA lysates of HEK-293cells treated with or without the test compound for 24 hours, using antibodies against CDK8 (Santa Cruz sc-1521) and housekeeping protein GAPDH (Santa Cruz sc-32233) (loading control) Protein bands on immunoblotted PVDF membranes were visualized with Western Lighting Plus ECL detection reagent (Perkin Elmer, Waltham, MA, USA) using ChemiDoc Touch™ (Bio-Rad). Image processing and densitometry analysis were performed using ImageLab software (Bio-Rad) to quantify the CDK8 protein levels (normalized by GAPDH) and evaluate the effects of compound treatment.
as §2

SMILES strings stand for the structures. Where only a bound is given, the exact number is not on record here.

Chain of CDK8 (P49336 whole entry): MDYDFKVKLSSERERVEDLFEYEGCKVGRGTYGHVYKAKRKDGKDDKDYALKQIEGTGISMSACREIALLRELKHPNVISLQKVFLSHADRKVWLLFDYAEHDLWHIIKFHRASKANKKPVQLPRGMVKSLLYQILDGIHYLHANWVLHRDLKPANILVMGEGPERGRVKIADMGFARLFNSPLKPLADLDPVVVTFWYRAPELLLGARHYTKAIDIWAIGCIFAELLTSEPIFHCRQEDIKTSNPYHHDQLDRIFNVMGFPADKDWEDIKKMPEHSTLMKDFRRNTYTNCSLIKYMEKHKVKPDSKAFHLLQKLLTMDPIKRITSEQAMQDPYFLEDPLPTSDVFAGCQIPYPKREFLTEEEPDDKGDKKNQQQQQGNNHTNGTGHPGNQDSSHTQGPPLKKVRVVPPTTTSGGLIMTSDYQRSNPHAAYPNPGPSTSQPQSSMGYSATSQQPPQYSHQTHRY
Chain of CDK8 (P24863 whole entry partner): as the sequence (P24863 whole entry partner) above

For the compound `CN(C)C(=O)c1ccc(N2CCCN(c3ccnc4sc(C(N)=O)c(N)c34)CC2)cc1` [SNX631-6, reference compound], the IC50 in the assay on RPMI 8226 cells was over 1000 nM.
On to `CN(C)C(=O)Cn1cc(-c2ccc(-c3cncc4ccccc34)cc2)cn1` [BI-1347, reference compound], for which, in the assay on Jurkat cells [1], the “growth inhibition, first two passages (14 days)” value is reported as “had a stronger growth inhibition effect than the PROTAC IA7886”. The “growth rates in later passages” value in the assay on Jurkat cells [1] (up to 53 days) is on record as “growth rates of BI-1347 treated cells were increasing”. The same compound yielded an IC50 in the assay on KMS-12-BM cells of over 1000 nM. Moreover, the “increase of the cell number upon removal of drug” value in the assay on Jurkat cells [2] was 7.1 fold. Also, the “growth inhibition over 20 days, order of efficacy” value with SK-MM-2 cells was “BI1347<IA7886<Senexin C<IA7843”. For the same compound, the “growth inhibition over 60 days” value in the assay on MV4-11 cells is listed as “strongly inhibited MV4-11 cells for the first 4 passages (33 days) but after that the cells became fully resistant to the kinase inhibitor”. For the same compound, the entries for the “effect on expression of CDK8/19-regulated genes” value in the assay on CDK8/19-regulated genes (CDK8/19 double-knockout (dKO) 293 cells) and in the assay on CDK8/19-regulated genes (wild-type HEK-293 cells) were “had no effect in dKO cells” and “had similar effects on the expression of the tested genes”, respectively. Also, in the assay on CDK8/19-regulated genes (HEK-293, 200 nM for 3 days, then 24 hrs and 48 hrs after wash-off), the “stability of transcriptional changes after wash-off” value is “largely maintained 24 hrs after wash-off but mostly disappeared 48 hrs after wash-off”.
For the compound `N#Cc1ccc2nccc(NCCc3ccc4cc(C(=O)N5CCN(C(=O)CCCCCCCCCCNC(=O)CCCNc6cccc7c6C(=O)N(C6CCC(=O)NC6=O)C7=O)CC5)ccc4c3)c2c1` (stereo not shown) [IA7843], the DC50 on CDK19 worked out at 1000 nM; at CDK8 (concentration degrading CDK8 to half of level in untreated cells) it was 46 nM. Besides, the “% CDK8 remaining” value on CDK8 (24 hours, tested at 1 μM) is 13%.
